Results published in patent US20230192772A1, “ANTIMICROBIAL PEPTIDES AND USES THEREOF” (SORBONNE UNIVERSITE, priority 2016, published 2023).
Ends that are not written are not given here.

Assays:
[1] = test system: Staphylococcus aureus ST 1065; assay: MIC/MBC, growth inhibition in liquid medium (Example 2); format: cell-based; details: Table 2
Excerpt: Escherichia coli (ATCC 8739, ATCC ML35p and P7 BLSE), Pseudomonas aeruginosa (ATCC 9027 and ATCC 27853), Klebsiella oxytoca (CIP 7932), Klebsiella pneumoniae (CIP 52.211), Salmonella enterica (CIP 8297), Yersinia ruckeri (ATCC 29473), Vibrio parahemolyticus (IFREMER 01 01/252), Staphylococcus aureus (ATCC 6538, ST 1065 and MRSA), Staphylococcus epidermidis (BM 3302), Listeria monocytogenes (SOR 100), Enterococcus faecalis (CIP A186, CIP 103015)), Kocuria rhizophila (ATCC 9341), Lactococcus garviae (ATCC 43921), Bacillus subtilis (CIP 52.65).
For each strain, a 5 ml pre-culture in LB medium is prepared by inoculating a colony of the bacterial strain of interest. The pre-culture is incubated at 37° C. under stirring overnight. The culture is subcultured (30 µL) in 5 mL. The culture concentration is evaluated by measuring the optical density at 620 nm. The concentration is adjusted by dilution so as to obtain a suspension with an OD of 0.05 at 620 nm.
The MIC is determined using a growth inhibition test in liquid medium. The MIC is defined as being the lowest peptide concentration capable of inhibiting the bacterial strain tested, after incubation for 18 h at 37° C. The test was carried out in a sterile microtitration plate containing 96 wells. A series of increasing concentrations of each peptide (0.2 to 100 µM) was prepared beforehand in sterile MilliQ water. In each well, 10 µL of peptide was incubated with 90 µL of bacterial suspension (10^7 cfu/mL) in yeast extract-free LB medium. The microplate was incubated at 37° C. for 18 h. The bacterial growth was evaluated by measuring the OD at 620 nm using a plate reader.
The negative growth inhibition control was obtained by replacing the solution containing the peptide by sterile MilliQ water. The positive control suitable for completely inhibiting the growth of the bacterial strains was obtained by replacing the solution containing the peptide by 10 µL of formaldehyde.
The results are interpreted by calculating the percentage of bacterial growth in each well according to the formula:
%Growth = (OD well - OD of T0)/(OD of T100-OD of T0)*100 where
• OD of T100 = OD of growth control (bacterial suspension free from sample under test, 100% growth), • OD of T0 = OD of sterility control (culture medium + bacterium + 10 µL formaldehyde, 0% growth) and • OD well = OD of well for which it is sought to calculate the growth percentage (bacterial suspension + peptide under test).
The MBC is defined as being the minimum peptide concentration leaving no surviving bacteria of the inoculum after incubation at 37° C. for 24 hours. This test consists of smearing the contents of the well wherein the peptide has inhibited bacterial growth on a Petri dish (LB agar), followed by incubation for 24 h at 37° C.

[2] = test system: psoriatic lesions and angiogenesis of skin; assay: Imiquimod-induced psoriasis model; format: in vivo, balb/c mice; details: topical, 10 µg; no Imiquimod treatment
Experimental: The DA2N and DA2NEQ peptides were tested in an Imiquimod-induced psoriasis model described by Van der Fits (Van der Fits et al. 2009. Journal of immunology. 182(9):5836-5845) on female balb/c mice, aged 7 to 8 weeks.
31 mg of commercial cream containing 5% Imiquimod (Aldara, 3 M Pharmaceuticals) is applied topically on about 2.5 cm of the previously shaven ventral region of the mice for 6 days. The first psoriatic lesions appear on the 3rd day. The peptides resuspended in the cream are applied topically or intravenously (10 µg) for the first 3 days of Imiquimod treatment. Mice with no Imiquimod treatment and/or with no peptide application were used as controls. On the 6th day, the mice are sacrificed and the skin sampled is analysed by microscopy (skin lesions and angiogenesis).

[3] = LC50 on immune cells (cytotoxic effect, cell viability); format: cell-based
Experimental: The mouse immune cells are obtained from C57BL6 mouse bone marrow. The human immune cells were purified from the whole blood of healthy donors (blood bank, IMSS, Cuernavaca, Mexico).
(§1) The peptides are incubated at 37° C., 5% CO2 in the presence of 500,000 immune and non-immune cells in RPMI medium at varied concentrations and at varied times. Peptide-free cells are used as the negative control and cells incubated for 5 min at 50° C. or in the presence of DMSO (30%) are used as the positive control. After incubation, the cells are washed then labelled with propidium iodide so as to measure the cell viability. The cell viability is analysed by counting or with flow cytometry in the presence of antibodies coupled with fluorochromes corresponding to characteristic markers of each cell population. The LC50 is then calculated as being the concentration of DA2N and DA2NEQ peptides inducing the death of 50% of each one of the immune cell populations.
(§2) Cytometry data processing is carried out with FlowJo software.

LC50 on red blood cells = format: cell-based; details: Human red blood cells
Experimental: The human red blood cells were purified from the whole blood of healthy donors (blood bank, IMSS, Cuernavaca, Mexico).
The peptides are incubated at 37° C., 5% CO2 in the presence of 500,000 red blood cells in RPMI medium at varied concentrations and at varied times. Peptide-free cells are used as the negative control and cells incubated for 5 min at 50° C. or in the presence of DMSO (30%) are used as the positive control. The LC50 is then calculated as being the concentration of DA2N and DA2NEQ peptides inducing the death of 50% of the red blood cells.

Human red blood cells = assay: Haemolytic activity; format: cell-based; details: 10 µM and 50 µM, 1h at 37° C.
Experimental: Mouse or donor blood is washed three times in 10 volumes of PBS at 4° C. by centrifugation at 800 g for 10 minutes. The blood sediment is finally diluted to 4% (v/v) in PBS buffer. The test was carried out as follows: either 10 µM, or 50 µM of peptide was added to 100 µL of red blood cell suspension.
After 1h of incubation at 37° C. followed by centrifugation (800 g, 15 min), the absorbance of the supernatant was measured at 550 nm.
The negative control for this test (0% haemolysis) contains 5 µL of PBS buffer instead of the solution containing the peptide and the positive control (100% haemolysis) contains 5 µL of 1% Triton X100 instead of the solution containing the peptide.

[4] = test system: non-immune cells (epithelial cells); assay: Survival of non-immune cells; format: cell-based; details: doses of the micromolar order; mouse and human epithelial cells
Experimental: The following non-immune cells were extracted after sacrificing C57BL6 mice or in a surgical context: epithelial cells, adipocytes, hepatocytes.
as §1, §2

[5] = C57BL6, Neutrophils, Mouse cells
[6] = C57BL6, T lymphocytes, Mouse cells

Substance	MBC [1] [µM]	MIC [1] [µM]	angiogenesis of healthy skin [2]	effect on healthy skin [2]	CC50 ([3]; C57BL6, Monocytes, Mouse cells) [µM]	CC50 ([3]; C57BL6, NK cells, Mouse cells) [µM]	CC50 [3, 5] [µM]	CC50 [3, 6] [µM]	CC50 ([3]; Monocytes, Human cells) [µM]	CC50 ([3]; NK cells, Human cells) [µM]	CC50 ([3]; Neutrophils, Human cells) [µM]	CC50 ([3]; T lymphocytes, Human cells) [µM]	CC50 (LC50 on red blood cells) [µM]	haemolysis of human red blood cells (Human red blood cells)	death of non-immune cells [4]
ALWKTLLKKVGKVAGKAVLNAVTNMANQN-OH [DA2N]	12.5	12.5	no effect on the angiogenesis of healthy skin	no effect on healthy skin	5	3	6	3	4	4	7.5	4	750	do not induce the haemolysis	induce the death of immune cells but not of non-immune cells
ALWKTLLKKVGKVAGKAVLNAVTNMANQNEQ [DA2NEQ, ALWKTLLKKVGKVAGKAVLNAVTNMANQNEQOH]	>100	>100	no effect on the angiogenesis of healthy skin	no effect on healthy skin	7	4	7.5	5	4	4	7	5	750	do not induce the haemolysis	induce the death of immune cells but not of non-immune cells
